Results reported in patent publication US9708314B2, “Heterocyclic amide compound” (NISSAN CHEMICAL INDUSTRIES, LTD., priority 2013, dated 2017).

Experiments:
Format in all cases: in vivo
Monochoria vaginalis = assay: Test Example 1: herbicidal activity, application before weed generation in submerged conditions; conditions: Seventeenth Table; application herbicide amount 320 g/ha
Outline: (§1)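 Submerged pot test: alluvial soil, 4 cm water, seeds sown mixed, 2.5-leaf rice transplanted; emulsion in water applied to surface day of sowing, dose g/ha; greenhouse 25–30° C.; 3 wk; 0–5 rating.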

Scirpus juncoides = assay: as above; conditions: Seventeenth Table; application herbicide amount 320 g/ha
Outline: as §1

[1] = test system: Echinochloa oryzacola Vasing.; assay: as above; conditions: Seventeenth Table; application herbicide amount 320 g/ha
Outline: as §1

Stellaria media = assay: Test Example 4: herbicidal effect by application to foliage (diluvial soil, plastic box); conditions: application to foliage, 320 g/ha
Outline: (§2)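 Read-out is a 0–5 visual grade of herbicidal ratio (5: ≥90%, almost withered; 0: ≤5%) taken three weeks after treatment. Compound was applied as a diluted emulsion to stem and leaf parts of 14-day greenhouse-grown plants (25° C. to 30° C.) at rates expressed as g/ha.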

Setaria viridis = assay: as above; conditions: application to foliage, 320 g/ha
Outline: as §2

Amaranthus retroflexus = assay: as above; conditions: application to foliage, 320 g/ha
Outline: as §2

Digitaria ciliaris = assay: as above; conditions: application to foliage, 320 g/ha
Outline: as §2

Lolium multiflorum Lam. = assay: as above; conditions: application to foliage, 320 g/ha
Outline: as §2

Alopecurus myosuroides = assay: as above; conditions: application to foliage, 320 g/ha
Outline: as §2

Compound	C (Monochoria vaginalis) herbicidal ratio grade (Monochoria vaginalis)	B (Scirpus juncoides) herbicidal ratio grade (Scirpus juncoides)	A (Echinochloa oryzicola Vasing.) herbicidal ratio grade [1]	herbicidal effect, P (Stellaria media) (Stellaria media)	herbicidal effect, G (Setaria viridis) (Setaria viridis)	herbicidal effect, N (Amaranthus retroflexus) (Amaranthus retroflexus)	herbicidal effect, F (Digitaria ciliaris) (Digitaria ciliaris)	herbicidal effect, K (Lolium multiflorum Lam.) (Lolium multiflorum Lam.)	herbicidal effect, J (Alopecurus myosuroides) (Alopecurus myosuroides)
C#CCSc1nnc2c(C(=O)Nc3nnnn3C)ccc(C(F)(F)F)n12 [2-103]	5 (Herbicidal ratio of 90% or more (almost completely withered))	4 (Herbicidal ratio of 70% or more and less than 90%)	5 (Herbicidal ratio of 90% or more (almost completely withered))	5 (Herbicidal ratio of 90% or more (almost completely withered))	3 (Herbicidal ratio of 40% or more and less than 70%)	5 (Herbicidal ratio of 90% or more (almost completely withered))	4 (Herbicidal ratio of 70% or more and less than 90%)	1 (Herbicidal ratio of 5% or more and less than 20%)	0 (Herbicidal ratio of 5% or less (almost no effect))
CC#Cc1nnc2c(C(=O)Nc3nnnn3C)ccc(C(F)(F)F)n12 [2-106]	4 (Herbicidal ratio of 70% or more and less than 90%)	3 (Herbicidal ratio of 40% or more and less than 70%)	5 (Herbicidal ratio of 90% or more (almost completely withered))	4 (Herbicidal ratio of 70% or more and less than 90%)	1 (Herbicidal ratio of 5% or more and less than 20%)	4 (Herbicidal ratio of 70% or more and less than 90%)	3 (Herbicidal ratio of 40% or more and less than 70%)	0 (Herbicidal ratio of 5% or less (almost no effect))	0 (Herbicidal ratio of 5% or less (almost no effect))
CC(=O)OCc1nnc2c(C(=O)Nc3nnnn3C)ccc(C(F)(F)F)n12 [2-107]	2 (Herbicidal ratio of 20% or more and less than 40%)	3 (Herbicidal ratio of 40% or more and less than 70%)	2 (Herbicidal ratio of 20% or more and less than 40%)	5 (Herbicidal ratio of 90% or more (almost completely withered))	3 (Herbicidal ratio of 40% or more and less than 70%)	5 (Herbicidal ratio of 90% or more (almost completely withered))	5 (Herbicidal ratio of 90% or more (almost completely withered))	0 (Herbicidal ratio of 5% or less (almost no effect))	0 (Herbicidal ratio of 5% or less (almost no effect))
Cn1nnnc1NC(=O)c1ccc(C(F)(F)F)n2c(CO)nnc12 [2-108]	2 (Herbicidal ratio of 20% or more and less than 40%)	3 (Herbicidal ratio of 40% or more and less than 70%)	4 (Herbicidal ratio of 70% or more and less than 90%)	5 (Herbicidal ratio of 90% or more (almost completely withered))	3 (Herbicidal ratio of 40% or more and less than 70%)	5 (Herbicidal ratio of 90% or more (almost completely withered))	4 (Herbicidal ratio of 70% or more and less than 90%)	0 (Herbicidal ratio of 5% or less (almost no effect))	0 (Herbicidal ratio of 5% or less (almost no effect))
Cn1nnnc1NC(=O)c1ccc(C(F)(F)F)n2c(C3(C)CC3(Cl)Cl)nnc12 (stereo not drawn) [2-110]	5 (Herbicidal ratio of 90% or more (almost completely withered))	5 (Herbicidal ratio of 90% or more (almost completely withered))	5 (Herbicidal ratio of 90% or more (almost completely withered))	5 (Herbicidal ratio of 90% or more (almost completely withered))	4 (Herbicidal ratio of 70% or more and less than 90%)	5 (Herbicidal ratio of 90% or more (almost completely withered))	5 (Herbicidal ratio of 90% or more (almost completely withered))	3 (Herbicidal ratio of 40% or more and less than 70%)	2 (Herbicidal ratio of 20% or more and less than 40%)
Cn1nnnc1NC(=O)c1ccc(C(F)(F)F)n2c(=O)n(C)nc12 [6-002]	2 (Herbicidal ratio of 20% or more and less than 40%)	3 (Herbicidal ratio of 40% or more and less than 70%)	4 (Herbicidal ratio of 70% or more and less than 90%)	5 (Herbicidal ratio of 90% or more (almost completely withered))	3 (Herbicidal ratio of 40% or more and less than 70%)	5 (Herbicidal ratio of 90% or more (almost completely withered))	4 (Herbicidal ratio of 70% or more and less than 90%)	0 (Herbicidal ratio of 5% or less (almost no effect))	0 (Herbicidal ratio of 5% or less (almost no effect))
CCn1nc2c(C(=O)Nc3nnnn3C)ccc(C(F)(F)F)n2c1=O [6-004]	2 (Herbicidal ratio of 20% or more and less than 40%)	0 (Herbicidal ratio of 5% or less (almost no effect))	0 (Herbicidal ratio of 5% or less (almost no effect))	4 (Herbicidal ratio of 70% or more and less than 90%)	4 (Herbicidal ratio of 70% or more and less than 90%)	5 (Herbicidal ratio of 90% or more (almost completely withered))	5 (Herbicidal ratio of 90% or more (almost completely withered))	2 (Herbicidal ratio of 20% or more and less than 40%)	1 (Herbicidal ratio of 5% or more and less than 20%)
Cc1nnc(NC(=O)c2ccc(C(F)(F)F)n3nc(C(C)C)nc23)o1 [7-001]	4 (Herbicidal ratio of 70% or more and less than 90%)	2 (Herbicidal ratio of 20% or more and less than 40%)	0 (Herbicidal ratio of 5% or less (almost no effect))	1 (Herbicidal ratio of 5% or more and less than 20%)	0 (Herbicidal ratio of 5% or less (almost no effect))	0 (Herbicidal ratio of 5% or less (almost no effect))	0 (Herbicidal ratio of 5% or less (almost no effect))	0 (Herbicidal ratio of 5% or less (almost no effect))	0 (Herbicidal ratio of 5% or less (almost no effect))
CC(C)c1nc2c(C(=O)Nc3nnnn3C)ccc(C(F)(F)F)n2n1 [7-002]	4 (Herbicidal ratio of 70% or more and less than 90%)	3 (Herbicidal ratio of 40% or more and less than 70%)	3 (Herbicidal ratio of 40% or more and less than 70%)	4 (Herbicidal ratio of 70% or more and less than 90%)	2 (Herbicidal ratio of 20% or more and less than 40%)	4 (Herbicidal ratio of 70% or more and less than 90%)	3 (Herbicidal ratio of 40% or more and less than 70%)	0 (Herbicidal ratio of 5% or less (almost no effect))	0 (Herbicidal ratio of 5% or less (almost no effect))
